Earlier results in PubChem BioAssay AID1259409 (Chemical Carcinogenesis Research Information System (CCRIS), 2018).

System: rodent chemically induced tumor inhibition, incidence and multiplicity
Assay: CCRIS tumor inhibitor studies

C#Cc1ccc2ccc3cccc4ccc1c2c34
tumour outcome (control, treated, inhibition, significance) (Carcinogen: 7,12-DIMETHYLBENZ[A]ANTHRACENE, 57-97-6, Dose [Inhibitor]: 0, 0.044 NMOL IN 0.2 ML ACETONE APPLIED TO BACK ONCE 5 MIN PRIOR TO CARCINOGEN DOSE (STUDY DURATION: 26 WK), Route [Inhibitor]: DERMAL, Species: MOUSE, Strain/Sex: SENCAR/FEMALE, Target Tissue: Type of Lesion: SKIN: PAPILLOMA, Dose [Carcinogen]: 10 NMOL IN 0.2 ML ACETONE APPLIED TO BACK ONCE.): 100%, 93%, 7%, not calculated | tumour outcome (control, treated, inhibition, significance) (Carcinogen: 7,12-DIMETHYLBENZ[A]ANTHRACENE, 57-97-6, Dose [Inhibitor]: 0, 0.44 NMOL IN 0.2 ML ACETONE APPLIED TO BACK ONCE 5 MIN PRIOR TO CARCINOGEN DOSE (STUDY DURATION: 20 WK), Route [Inhibitor]: DERMAL, Species: MOUSE, Strain/Sex: SENCAR/FEMALE, Target Tissue: Type of Lesion: SKIN: PAPILLOMA, Dose [Carcinogen]: 10 NMOL IN 0.2 ML ACETONE APPLIED TO BACK ONCE.): 100%, 50%, 50%, not calculated | outcome (Carcinogen: 7,12-DIMETHYLBENZ[A]ANTHRACENE, 57-97-6, Dose [Inhibitor]: 0, 0.44 NMOL IN 0.2 ML ACETONE APPLIED TO BACK ONCE 5 MIN PRIOR TO CARCINOGEN DOSE (STUDY DURATION: 26 WK), Route [Inhibitor]: DERMAL, Species: MOUSE, Strain/Sex: SENCAR/FEMALE, Target Tissue: Type of Lesion: SKIN: PAPILLOMA, Dose [Carcinogen]: 10 NMOL IN 0.2 ML ACETONE APPLIED TO BACK ONCE.): 100%, 100%, 0, not calculated | tumour outcome (control, treated, inhibition, significance) (Carcinogen: 7,12-DIMETHYLBENZ[A]ANTHRACENE, 57-97-6, Dose [Inhibitor]: 0, 4.4 NMOL IN 0.2 ML ACETONE APPLIED TO BACK ONCE 5 MIN PRIOR TO CARCINOGEN DOSE (STUDY DURATION: 26 WK), Route [Inhibitor]: DERMAL, Species: MOUSE, Strain/Sex: SENCAR/FEMALE, Target Tissue: Type of Lesion: SKIN: PAPILLOMA, Dose [Carcinogen]: 10 NMOL IN 0.2 ML ACETONE APPLIED TO BACK ONCE.): 100%, 83%, 17%, not calculated | tumour outcome (control, treated, inhibition, significance) (Carcinogen: 7,12-DIMETHYLBENZ[A]ANTHRACENE, 57-97-6, Dose [Inhibitor]: 0, 22 NMOL IN 0.2 ML ACETONE APPLIED TO BACK ONCE 5 MIN PRIOR TO CARCINOGEN DOSE (STUDY DURATION: 26 WK), Route [Inhibitor]: DERMAL, Species: MOUSE, Strain/Sex: SENCAR/FEMALE, Target Tissue: Type of Lesion: SKIN: PAPILLOMA, Dose [Carcinogen]: 10 NMOL IN 0.2 ML ACETONE APPLIED TO BACK ONCE.): 100%, 60%, 40%, not calculated | tumour outcome (control, treated, inhibition, significance) (Carcinogen: 7,12-DIMETHYLBENZ[A]ANTHRACENE, 57-97-6, Dose [Inhibitor]: 0, 44 NMOL IN 0.2 ML ACETONE APPLIED TO BACK ONCE 5 MIN PRIOR TO CARCINOGEN DOSE (STUDY DURATION: 26 WK), Route [Inhibitor]: DERMAL, Species: MOUSE, Strain/Sex: SENCAR/FEMALE, Target Tissue: Type of Lesion: SKIN: PAPILLOMA, Dose [Carcinogen]: 10 NMOL IN 0.2 ML ACETONE APPLIED TO BACK ONCE.): 100%, 35%, 65%, not calculated | tumour outcome (control, treated, inhibition, significance) (Carcinogen: 7,12-DIMETHYLBENZ[A]ANTHRACENE, 57-97-6, Dose [Inhibitor]: 0, 440 NMOL IN 0.2 ML ACETONE APPLIED TO BACK ONCE 5 MIN PRIOR TO CARCINOGEN DOSE (STUDY DURATION: 20 WK), Route [Inhibitor]: DERMAL, Species: MOUSE, Strain/Sex: SENCAR/FEMALE, Target Tissue: Type of Lesion: SKIN: PAPILLOMA, Dose [Carcinogen]: 10 NMOL IN 0.2 ML ACETONE APPLIED TO BACK ONCE.): 100%, 24%, 76%, not calculated | tumour outcome (control, treated, inhibition, significance) (Carcinogen: 7,12-DIMETHYLBENZ[A]ANTHRACENE, 57-97-6, Dose [Inhibitor]: 0, 4400 NMOL IN 0.2 ML ACETONE APPLIED TO BACK ONCE., Route [Inhibitor]: DERMAL, Species: MOUSE, Strain/Sex: SENCAR/FEMALE, Target Tissue: Type of Lesion: SKIN: PAPILLOMA, Dose [Carcinogen]: 10 NMOL IN 0.2 ML ACETONE APPLIED TO BACK ONCE.): 100%, 0%, 100%, not calculated | tumour outcome (control, treated, inhibition, significance) (Carcinogen: BENZO[A]PYRENE, 50-32-8, Dose [Inhibitor]: 0, 22 NMOL IN 0.2 ML ACETONE APPLIED TO BACK ONCE 5 MIN PRIOR TO CARCINOGEN DOSE (STUDY DURATION: 26 WK), Route [Inhibitor]: DERMAL, Species: MOUSE, Strain/Sex: SENCAR/FEMALE, Target Tissue: Type of Lesion: SKIN: PAPILLOMA, Dose [Carcinogen]: 200 NMOL IN 0.2 ML ACETONE APPLIED TO BACK ONCE.): 100%, 91%, 9%, not calculated | tumour outcome (control, treated, inhibition, significance) (Carcinogen: BENZO[A]PYRENE, 50-32-8, Dose [Inhibitor]: 0, 44 NMOL IN 0.2 ML ACETONE APPLIED TO BACK ONCE 5 MIN PRIOR TO CARCINOGEN DOSE (STUDY DURATION: 26 WK), Route [Inhibitor]: DERMAL, Species: MOUSE, Strain/Sex: SENCAR/FEMALE, Target Tissue: Type of Lesion: SKIN: PAPILLOMA, Dose [Carcinogen]: 200 NMOL IN 0.2 ML ACETONE APPLIED TO BACK ONCE.): 100%, 96%, 4%, not calculated | tumour outcome (control, treated, inhibition, significance) (Carcinogen: BENZO[A]PYRENE, 50-32-8, Dose [Inhibitor]: 0, 440 NMOL IN 0.2 ML ACETONE APPLIED TO BACK ONCE 5 MIN PRIOR TO CARCINOGEN DOSE (STUDY DURATION: 26 WK), Route [Inhibitor]: DERMAL, Species: MOUSE, Strain/Sex: SENCAR/FEMALE, Target Tissue: Type of Lesion: SKIN: PAPILLOMA, Dose [Carcinogen]: 200 NMOL IN 0.2 ML ACETONE APPLIED TO BACK ONCE.): 100%, 74%, 26%, not calculated | tumour outcome (control, treated, inhibition, significance) (Carcinogen: BENZO[A]PYRENE, 50-32-8, Dose [Inhibitor]: 0, 4400 NMOL IN 0.2 ML ACETONE APPLIED TO BACK ONCE 5 MIN PRIOR TO CARCINOGEN DOSE (STUDY DURATION: 20 WK), Route [Inhibitor]: DERMAL, Species: MOUSE, Strain/Sex: SENCAR/FEMALE, Target Tissue: Type of Lesion: SKIN: PAPILLOMA, Dose [Carcinogen]: 200 NMOL IN 0.2 ML ACETONE APPLIED TO BACK ONCE.): 75%, 59%, 21%, not calculated | tumour outcome (control, treated, inhibition, significance) (Carcinogen: BENZO[A]PYRENE, 50-32-8, Dose [Inhibitor]: 0, 4400 NMOL IN 0.2 ML ACETONE APPLIED TO BACK ONCE 5 MIN PRIOR TO CARCINOGEN DOSE (STUDY DURATION: 26 WK), Route [Inhibitor]: DERMAL, Species: MOUSE, Strain/Sex: SENCAR/FEMALE, Target Tissue: Type of Lesion: SKIN: PAPILLOMA, Dose [Carcinogen]: 200 NMOL IN 0.2 ML ACETONE APPLIED TO BACK ONCE.): 100%, 71%, 29%, not calculated | tumour outcome (control, treated, inhibition, significance) (Carcinogen: BENZO[A]PYRENE, 50-32-8, Dose [Inhibitor]: 0, 22000 NMOL IN 0.2 ML ACETONE APPLIED TO BACK ONCE 5 MIN PRIOR TO CARCINOGEN DOSE (STUDY DURATION: 20 WK), Route [Inhibitor]: DERMAL, Species: MOUSE, Strain/Sex: SENCAR/FEMALE, Target Tissue: Type of Lesion: SKIN: PAPILLOMA, Dose [Carcinogen]: 200 NMOL IN 0.2 ML ACETONE APPLIED TO BACK ONCE.): 75%, 35%, 53%, not calculated | tumour outcome (control, treated, inhibition, significance) (Carcinogen: BENZO[A]PYRENE, 50-32-8, Dose [Inhibitor]: 0, 44000 NMOL IN 0.2 ML ACETONE APPLIED TO BACK ONCE 5 MIN PRIOR TO CARCINOGEN DOSE (STUDY DURATION: 20 WK), Route [Inhibitor]: DERMAL, Species: MOUSE, Strain/Sex: SENCAR/FEMALE, Target Tissue: Type of Lesion: SKIN: PAPILLOMA, Dose [Carcinogen]: 200 NMOL IN 0.2 ML ACETONE APPLIED TO BACK ONCE.): 75%, 22%, 71%, not calculated | tumour outcome (control, treated, inhibition, significance) (Carcinogen: N-METHYL-N'-NITRO-N-NITROSOGUANIDINE, 70-25-7, Dose [Inhibitor]: 0, 4400 NMOL IN 0.2 ML ACETONE APPLIED TO BACK ONCE 5 MIN PRIOR TO CARCINOGEN DOSE (STUDY DURATION: 20 WK), Route [Inhibitor]: DERMAL, Species: MOUSE, Strain/Sex: SENCAR/FEMALE, Target Tissue: Type of Lesion: SKIN: PAPILLOMA, Dose [Carcinogen]: 2500 NMOL IN 0.2 ML ACETONE APPLIED TO BACK ONCE.): 78%, 78%, 0%, not significant

CC#C[C@]1(O)CC[C@H]2[C@@H]3CCC4=CC(=O)CCC4=C3[C@@H](c3ccc(N(C)C)cc3)C[C@@]21C
tumour outcome (control, treated, inhibition, significance) (Carcinogen: 7,12-Dimethylbenz(a)anthracene (57-97-6), Dose [Inhibitor]: 10 mg administered daily for 28 days, Route [Inhibitor]: Subcutaneous, Species: Rat, Strain/Sex: Sprague-Dawley/Female, Target Tissue: Type of Lesion: Mammary gland: Adenocarcinoma and papillary carcinoma, Dose [Carcinogen]: 10 mg/kg once at 50 days of age, Promoter: None): 12/13 (92%), 13/14 (93%), 0% ns

CC(=O)OCC(=O)[C@H]1CC[C@H]2[C@@H]3CCC4=CC(=O)CC[C@]4(C)[C@H]3CC[C@]12C
tumour outcome (control, treated, inhibition, significance) (Carcinogen: 1,2-DIMETHYLHYDRAZINE DIHYDROCHLORIDE, 306-37-6, Dose [Inhibitor]: 0, 10 MG/KG IN PEANUT OIL ON DAYS 1 AND 3 OF STUDY THEN 1/WK FOR 30 WK (STUDY DURATION: 31 WK), Route [Inhibitor]: SUBCUTANEOUS, Species: RAT, Strain/Sex: SPRAGUE-DAWLEY/MALE, Target Tissue: Type of Lesion: COLON: ADENOCARCINOMA, Dose [Carcinogen]: 9 MG/KG 1/WK FOR 7 WK THEN 19.4 MG/KG 1/WK FOR 13 WK, Promoter: NONE USED): 14/14 (100%), 13/13 (100%), 0%, not significant | tumour outcome (control, treated, inhibition, significance) (Carcinogen: 1,2-DIMETHYLHYDRAZINE DIHYDROCHLORIDE, 306-37-6, Dose [Inhibitor]: 0, 10 MG/KG IN PEANUT OIL ON DAYS 1 AND 3 OF STUDY THEN 1/WK FOR 30 WK (STUDY DURATION: 31 WK), Route [Inhibitor]: SUBCUTANEOUS, Species: RAT, Strain/Sex: SPRAGUE-DAWLEY/MALE, Target Tissue: Type of Lesion: SMALL INTESTINE: ADENOCARCINOMA, Dose [Carcinogen]: 9 MG/KG 1/WK FOR 7 WK THEN 19.4 MG/KG 1/WK FOR 13 WK, Promoter: NONE USED): 13/14 (93%), 9/13 (69%), 26%, not significant
